Test results published in patent publication US12201627B2, “NLRP3 modulators” (Innate Tumor Immunity, Inc., priority 2018, dated 2025).

Target: T1, NLRP3 (Homo sapiens, UniProt Q96P20)
T1 construct: host or cells: PMA-differentiated THP-1 cells
Test: Measurement of IL-1β production in PMA-differentiated THP-1 cells (NLRP3 hIL1B)
Type: cell-based
Conditions: read-out: NLRP3 hILIB IC50
Method: Measurement of IL-1β Production in PMA-Differentiated THP-1 Cells
THP-1 cells were purchased from the American Type Culture Collection and sub-cultured according to instructions from the supplier. Prior to experiments, cells were cultured in RPMI 1640 containing 10% heat inactivated FBS, penicillin (100 units/ml) and streptomycin (100 μg/ml), and maintained in log phase prior to experimental setup. Prior to the experiment THP-1 were treated with PMA (Phorbol 12-myristate 13-acetate) ([…]) for 24 hours. The day of the experiment the media was removed and attaching cells were treated with trypsin for 2 minutes, cells were then collected, washed with PBS (phosphate buffer saline), spin down, resuspended in 2% heat inactivated FBS with RPMI at a concentration of 1×10^6 cells/ml, and 100 μl was plated in a 96 well plate. Compounds were dissolved in dimethyl sulfoxide (DMSO) and added to the culture medium to achieve desired concentration (e.g. 100, 30, 10, 3, 1, 0.3 or 0.1 μM). Cells were incubated with compounds for 4 hours. Cell free supernatant was collected and the production of IL-1β was evaluated by ELISA. A vehicle only control was run concurrently with each experiment. Final DMSO concentration was 1%.
Measurement of IL-1β Production in PMA-Differentiated THP-1 Cells (Alternative Procedure)
THP-1 cells were purchased from the American Type Culture Collection and sub-cultured according to instructions from the supplier. Prior to experiments, cells were cultured in RPMI 1640 containing 10% heat inactivated FBS, penicillin (100 units/ml), streptomycin (100 μg/ml), HEPES (10 mM) and sodium pyruvate (1 mM) and maintained in log phase prior to experimental setup. Prior to the experiment, THP-1 cells were treated with PMA (Phorbol 12-myristate 13-acetate) (20 μg/ml) overnight. The day of the experiment, the media was removed and attached cells were treated with trypsin for 2 minutes, cells were then collected, washed with PBS (phosphate buffer saline), pelleted by centrifugation and resuspended in 2% heat inactivated FBS with RPMI at a concentration of 50,000 cells/well in a 384 well plate. Cell free supernatant was collected and the production of IL-1β was evaluated by ELISA. Compounds were dissolved in dimethyl sulfoxide (DMSO) and added to the culture medium to achieve desired concentration (e.g. 100, 30, 10, 3, 1, 0.3 or 0.1 μM). Cells were incubated with compounds for 2 hours. A vehicle only control was run concurrently with each experiment. Final DMSO concentration was 1%.
Measurement of IL-1β Production—hTRF Protocol (Second Alternative Procedure)
Serial dilutions of compounds in DMSO were added to low volume 384 well plates at 100 nl/well using an ECHO 550 acoustic dispenser (Labcyte) to achieve final starting concentration of 10 μM in assay.
THP-1 cells in RPMI (Gibco, 11875) media with 10% FBS at a density of 1×10^6 cell/ml in a T175 flask were treated with a final concentration of phorbol 12-myristate 13-acetate (PMA) (Sigma, P1585) of 50 ng/ml overnight at 37° C. at 5% CO2 for differentiation. Cells were harvested the next day after rinsing well with dPBS using 0.5% trypsin. A cell solution was prepared of 1×10^6 cells/ml for 50,000 cells in 50 μl/well in RPMI media with 2% FBS. Cells were plated using a multichannel pipette onto the compound dilutions in Greiner, 384 well, black clear bottom tissue culture treated plates (781090). The plates were incubated in 37° C. incubator at 5% CO2 for 2 hours.
After the 2 hour incubation, the cell plates were spun in the centrifuge for 5 minutes at 1200 rpm. Using the Felix (CyBio), 8 μl of the supernatant was transferred to 384 well, low volume, white proxy plates. (Perkin Elmer, 6008230). A human IL1beta hTRF kit was used to analyze the supernatant (CISBIO, 62HIL1BPEG). The kit instructions were followed for preparing the IL1Beta standard curve and then the antibodies from the kit were diluted 1:40 rather than 1:20 as kit instructed. […]

T1 sequence (Q96P20 whole entry): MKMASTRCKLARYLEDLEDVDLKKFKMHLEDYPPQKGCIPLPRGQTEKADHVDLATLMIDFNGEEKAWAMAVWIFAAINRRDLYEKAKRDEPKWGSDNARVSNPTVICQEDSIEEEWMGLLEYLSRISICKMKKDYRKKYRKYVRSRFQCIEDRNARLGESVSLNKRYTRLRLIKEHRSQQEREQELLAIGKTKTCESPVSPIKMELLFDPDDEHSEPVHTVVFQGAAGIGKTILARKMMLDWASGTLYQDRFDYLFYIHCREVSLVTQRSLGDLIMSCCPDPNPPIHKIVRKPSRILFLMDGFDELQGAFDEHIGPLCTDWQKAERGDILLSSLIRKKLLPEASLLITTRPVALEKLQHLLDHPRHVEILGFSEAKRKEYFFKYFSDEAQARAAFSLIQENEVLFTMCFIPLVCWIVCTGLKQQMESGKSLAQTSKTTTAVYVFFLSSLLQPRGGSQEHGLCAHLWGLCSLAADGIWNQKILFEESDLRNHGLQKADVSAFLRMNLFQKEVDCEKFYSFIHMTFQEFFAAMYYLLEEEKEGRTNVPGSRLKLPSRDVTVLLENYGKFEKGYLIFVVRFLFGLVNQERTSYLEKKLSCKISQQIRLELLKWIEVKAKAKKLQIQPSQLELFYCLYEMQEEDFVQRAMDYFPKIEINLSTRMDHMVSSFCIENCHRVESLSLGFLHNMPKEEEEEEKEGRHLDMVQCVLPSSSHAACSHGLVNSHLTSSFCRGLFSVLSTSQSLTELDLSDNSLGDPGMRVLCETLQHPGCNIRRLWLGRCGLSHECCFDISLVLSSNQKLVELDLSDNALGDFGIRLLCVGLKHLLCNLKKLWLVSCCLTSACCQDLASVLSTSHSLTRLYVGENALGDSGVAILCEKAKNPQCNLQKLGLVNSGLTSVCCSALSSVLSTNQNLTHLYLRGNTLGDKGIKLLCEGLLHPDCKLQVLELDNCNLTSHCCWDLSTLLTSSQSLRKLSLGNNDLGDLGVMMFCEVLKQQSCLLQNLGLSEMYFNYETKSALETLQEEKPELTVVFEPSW

| SMILES | IC50 [nM] |
| --- | --- |
| CC(C)n1c(CN2CC(C)(O)C2)nc2c(N)nc3cc(-c4cc[nH]n4)ccc3c21 [Example 15] | 1100 |
| Nc1nc2cc(-c3cc[nH]n3)ccc2c2c1nc(CN1CC3(CCCO3)C1)n2C1CCC1 [Example 11] | 240 |
| COC1CN(Cc2nc3c(N)nc4cc(-c5cc[nH]n5)ccc4c3n2C2CCC2)C1 [Example 1, 1-cyclobutyl-2-[(3-methoxyazetidin-1-yl)methyl]-7-(1H-pyrazol-5-yl)-1H-imidazo[4,5-c]quinolin-4-amine] | 120 |
| Nc1nc2cc(-c3cc[nH]n3)ccc2c2c1nc(CN1CC(F)C1)n2CC(F)F [Example 3] | 220 |
| Nc1nc2cc(-c3cc[nH]n3)ccc2c2c1nc(CN1CC(F)C1)n2C1CC1 [Example 10] | 250 |
| N#CC1CN(Cc2nc3c(N)nc4cc(-c5cc[nH]n5)ccc4c3n2C2CC2)C1 [Example 12] | 2000 |
| Nc1nc2cc(-c3cc[nH]n3)ccc2c2c1nc(CN1CC3(CCCO3)C1)n2C1CC1 [Example 14] | 1610 |
| COC1CN(Cc2nc3c(N)nc4cc(-c5cc[nH]n5)ccc4c3n2CC(F)F)C1 [Example 7] | 220 |
| CC(C)n1c(CN2CC(C#N)C2)nc2c(N)nc3cc(-c4cc[nH]n4)ccc3c21 [Example 13] | 630 |
| Nc1nc2cc(-c3cc[nH]n3)ccc2c2c1nc(CN1CCC1)n2C1CC1 [Example 4] | 180 |
| Nc1nc2cc(-c3cc[nH]n3)ccc2c2c1nc(CN1CC(F)(F)C1)n2CC(F)F [Example 2] | 80 |
| Nc1nc2cc(-c3cc[nH]n3)ccc2c2c1nc(CN1CC(O)C1)n2C1CC1 [Example 16] | 4800 |
| Nc1nc2cc(-c3cc[nH]n3)ccc2c2c1nc(CN1CC(F)(F)C1)n2C1CCC1 [Example 8] | 200 |
| Nc1nc2cc(-c3cc[nH]n3)ccc2c2c1nc(CN1CC(F)C1)n2C1CCC1 [Example 6] | 260 |
| CC1(O)CN(Cc2nc3c(N)nc4cc(-c5cc[nH]n5)ccc4c3n2C2CCC2)C1 [Example 17] | 2200 |
| COC1CN(Cc2nc3c(N)nc4cc(-c5cc[nH]n5)ccc4c3n2C2CC2)C1 [Example 5] | 270 |

Target: T2, human TLR8 (Homo sapiens, UniProt Q9NR97)
T2 construct: host or cells: HEK-Blue cells (human HEK) co-expressing TLR8 and an NF-kB/AP1-inducible SEAP reporter
T2 sequence (Q9NR97 27-1041): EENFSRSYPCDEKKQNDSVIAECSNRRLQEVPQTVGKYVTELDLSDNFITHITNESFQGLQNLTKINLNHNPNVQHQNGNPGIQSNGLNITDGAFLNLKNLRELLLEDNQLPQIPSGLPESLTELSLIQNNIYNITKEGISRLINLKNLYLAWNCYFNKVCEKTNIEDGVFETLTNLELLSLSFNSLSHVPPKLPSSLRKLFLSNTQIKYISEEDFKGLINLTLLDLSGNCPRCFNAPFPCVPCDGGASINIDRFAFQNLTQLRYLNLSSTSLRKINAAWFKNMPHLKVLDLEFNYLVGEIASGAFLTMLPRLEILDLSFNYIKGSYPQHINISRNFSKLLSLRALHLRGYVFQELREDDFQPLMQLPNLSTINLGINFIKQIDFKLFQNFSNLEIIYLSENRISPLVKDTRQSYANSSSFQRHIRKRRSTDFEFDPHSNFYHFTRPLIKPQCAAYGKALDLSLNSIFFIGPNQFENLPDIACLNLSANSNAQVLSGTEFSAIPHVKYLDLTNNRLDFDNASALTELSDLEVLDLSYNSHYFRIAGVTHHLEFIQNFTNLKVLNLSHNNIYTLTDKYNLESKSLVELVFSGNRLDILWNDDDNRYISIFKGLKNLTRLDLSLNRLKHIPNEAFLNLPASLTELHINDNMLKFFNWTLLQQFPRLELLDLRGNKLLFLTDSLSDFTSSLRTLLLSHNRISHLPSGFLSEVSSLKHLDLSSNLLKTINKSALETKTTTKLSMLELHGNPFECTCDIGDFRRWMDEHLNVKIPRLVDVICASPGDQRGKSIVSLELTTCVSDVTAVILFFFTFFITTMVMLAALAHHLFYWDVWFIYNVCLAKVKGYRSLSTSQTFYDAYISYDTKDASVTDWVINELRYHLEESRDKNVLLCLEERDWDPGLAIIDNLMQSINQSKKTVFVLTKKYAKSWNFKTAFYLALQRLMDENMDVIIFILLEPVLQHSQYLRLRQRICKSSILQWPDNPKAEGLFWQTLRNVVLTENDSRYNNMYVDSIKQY
Test: In vitro human TLR8 reporter assay (HEK-Blue cells, NF-kB/AP1-inducible SEAP)
Type: cell-based
Conditions: HEK-Blue cells expressing TLR8, SEAP reporter; read-out: TLR8 Agonist EC50
Method: In Vitro Human TLR7 and TLR8 Binding Reporter Assays
Logarithmically-growing human HEK-Blue cells co-expressing a TLR7 or TLR8 gene and a NF-kB/AP1-inducible SEAP (secreted embryonic alkaline phosphatase; Invivogen, San Diego, Calif.) reporter gene are added to individual wells of a 384-well plate (15,000 cells per 20 μL per well) and maintained for 24 h at 37° C., 5% CO2. Test compounds or DMSO are distributed to separate wells the next day using acoustic liquid handling technology (100 nL per well) and cells are subsequently incubated for 18 h at 37° C., 5% CO2. Cellular SEAP production is measured using an Envision plate reader instrument thirty minutes after adding freshly-made Quanti-Blue reagent (prepared by following manufacturer instructions; Invivogen, San Diego, Calif.) to the HEK-Blue TLR Nf-kB-SEAP cell reactions. All EC50 values (half-maximal effective concentration) are determined using proprietary data analysis software. Normalized EC50 value=absolute value determined by setting 100% Ymax using a reference standard RLU (relative light unit) values from cells treated with 50 μM of the reference standard.

| SMILES | EC50 [nM] |
| --- | --- |
| Nc1nc2cc(-c3cc[nH]n3)ccc2c2c1nc(CN1CC(F)(F)C1)n2CC(F)F [Example 2] | 1000 to 20000 |
